Data as given in patent publication US8153561B2, “Limonene-containing herbicide compositions, herbicide concentrate formulations and methods for making and using same for organic production” (Cutting Edge Formulations, Inc., priority 2005, dated 2012).

System: common lambsquarters
Experiment: Field trial Zellwood, Fla.: damage rating on common lambsquarters, sprayed until runoff
Format: in vivo
Settings: commercial burn down standard; improved by Day 3
Procedure: FIG. 7 is a bar graph setting forth results from a field study on lambsquarters conducted in Florida in January of 2005. Ratings are based on 0 to 10 (no damage to dead). Statistical analysis is by Duncan's MRT (P<0.05).
A field trial was conducted in Zellwood, Fla. The same formulation described in Example 1 was used in the Florida trial. All limonene treatments were made at a 3:1 ratio by volume, represented as water:herbicide formulation ratio, to provide a herbicide composition of 22% limonene (w/w %). Four reps per treatment were used; all treatments were randomly distributed within a rep. The weed species was common lambsquarters (1 to 2 feet in height). Treatments applied were pH 3, 7, 8 and 9 with and without a silicone surfactant, Silwet; each treatment was sprayed until runoff. The commercial burn down standard, Gramoxone (Paraquat) was included. Readings were taken at 1 and 2 hours, and 1, 3 and 7 days. […] Effects with Gramoxone (Paraquat) were first observed on day 1 and improved by Day 3. After the first 2 hours limonene effects were stabilized.

Compound: C[n+]1ccc(-c2cc[n+](C)cc2)cc1 [Gramoxone, Paraquat]
- effects first observed: 1 days
